{
  "source": "patent US20250064773A1",
  "about": "“TARGETING ERO1 ALPHA WITH AURONE DERIVATIVES” (West Virginia University Board of Governors on behalf of …, priority 2021, published 2025)",
  "key": {"[1]": {"biological_target": "T1, purified human ERO1α (Homo sapiens, UniProt Q96HE7, C104A/C131A/C166A)", "T1 construct": "made in house", "T1 sequence (Q96HE7 22-468 C104A/C131A/C166A)": "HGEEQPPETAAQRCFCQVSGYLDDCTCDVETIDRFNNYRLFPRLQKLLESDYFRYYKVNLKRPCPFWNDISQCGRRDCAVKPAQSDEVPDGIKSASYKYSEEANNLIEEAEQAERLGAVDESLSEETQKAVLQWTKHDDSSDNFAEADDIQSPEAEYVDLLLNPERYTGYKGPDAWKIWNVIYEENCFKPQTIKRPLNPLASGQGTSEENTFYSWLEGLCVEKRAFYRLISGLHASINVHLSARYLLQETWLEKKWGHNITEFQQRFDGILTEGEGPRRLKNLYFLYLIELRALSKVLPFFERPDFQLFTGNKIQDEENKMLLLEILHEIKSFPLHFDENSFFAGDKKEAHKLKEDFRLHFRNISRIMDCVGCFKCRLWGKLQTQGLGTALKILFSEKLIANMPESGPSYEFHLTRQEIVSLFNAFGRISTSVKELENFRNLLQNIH", "experiment": "Recombinant ERO1α enzyme assay (Amplex Red)", "format": "biochemical", "settings": "for inhibition at 10 µM: average of N = 3 ± S.D., read-out: % inhibition (10 μM) of ERO1α enzyme activity compared to vehicle control", "protocol": "Based on previous work which established an aurone chemical class of compounds as FAD containing enzyme inhibitors^37, we evaluated sulfuretin analogs for ERO1α enzyme inhibition.\nQuantification of enzymatic activity of ERO1α was performed using the Amplex Red as previously described^6."}, "[2]": {"biological_target": "T2, MAO-B (Homo sapiens, UniProt P27338)", "T2 sequence (P27338 1-520)": "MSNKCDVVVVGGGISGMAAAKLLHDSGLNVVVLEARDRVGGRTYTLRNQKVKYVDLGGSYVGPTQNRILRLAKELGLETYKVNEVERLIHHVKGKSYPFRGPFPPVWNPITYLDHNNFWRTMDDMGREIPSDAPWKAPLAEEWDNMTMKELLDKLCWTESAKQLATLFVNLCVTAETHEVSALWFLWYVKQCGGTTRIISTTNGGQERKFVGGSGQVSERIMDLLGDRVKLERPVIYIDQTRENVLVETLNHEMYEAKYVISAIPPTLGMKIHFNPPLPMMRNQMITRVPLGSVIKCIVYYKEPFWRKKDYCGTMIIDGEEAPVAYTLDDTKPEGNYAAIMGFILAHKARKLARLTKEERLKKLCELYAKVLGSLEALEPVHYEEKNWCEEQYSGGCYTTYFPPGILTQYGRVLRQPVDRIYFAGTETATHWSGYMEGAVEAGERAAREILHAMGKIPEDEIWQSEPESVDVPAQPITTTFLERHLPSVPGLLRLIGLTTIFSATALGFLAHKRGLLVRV", "settings": "cited from earlier work"}, "[3]": {"tested_on": "PC-9 cells", "experiment": "Soft agar clonogenic assay, PC-9", "format": "cell-based", "settings": "14 days, 3.75-15 μM", "protocol": "(§1) We utilized an MTT assay to determine the potency of the compounds for inhibiting cell growth. […] We next asked whether T151742 induced inhibition of cell growth was dependent on ERO1α expression. As shown in FIG. 6C two ERO1α deleted clones in the PC-9 cell line were isolated. Using an MTT assay to determine overall cellar viability, a non-targeted control (scramble), and both ERO1α knockout clones was subjected to treatment with T151742 for 72 hours (See FIG. 6D). […] Though only slight differences were observed between T151742 and EN-460 we tested the effects of these compounds in a clonogenic assay which is a better test for inhibition of self-renewal.\nFIG. 7A and FIG. 7B show 1000 cells/well were plated in a 12-well plate in triplicate with either 0.5% DMSO, T151742, or EN-460 and allowed to form colonies for 14 days. Colonies were subsequently stained with 0.01% Crystal Violet, imaged, and quantified using ImageJ. […] Colonies were stained with 0.01% Crystal Violet, imaged, and quantified using ImageJ.\nCell Lines: PC-9 cell line used was obtained from Sigma Aldrich and grown in RPMI 1640 medium with 10% fetal bovine serum and 1% penicillin/streptomycin. […] Plate was then read on the BioTek Cytation 5 at 530/590 nm. […] Plate was then read at 570 nm. […] Images were then quantified using ImageJ. […]"}, "[4]": {"biological_target": "T3, MAO-A (Homo sapiens, UniProt P21397)", "T3 sequence (P21397 1-527)": "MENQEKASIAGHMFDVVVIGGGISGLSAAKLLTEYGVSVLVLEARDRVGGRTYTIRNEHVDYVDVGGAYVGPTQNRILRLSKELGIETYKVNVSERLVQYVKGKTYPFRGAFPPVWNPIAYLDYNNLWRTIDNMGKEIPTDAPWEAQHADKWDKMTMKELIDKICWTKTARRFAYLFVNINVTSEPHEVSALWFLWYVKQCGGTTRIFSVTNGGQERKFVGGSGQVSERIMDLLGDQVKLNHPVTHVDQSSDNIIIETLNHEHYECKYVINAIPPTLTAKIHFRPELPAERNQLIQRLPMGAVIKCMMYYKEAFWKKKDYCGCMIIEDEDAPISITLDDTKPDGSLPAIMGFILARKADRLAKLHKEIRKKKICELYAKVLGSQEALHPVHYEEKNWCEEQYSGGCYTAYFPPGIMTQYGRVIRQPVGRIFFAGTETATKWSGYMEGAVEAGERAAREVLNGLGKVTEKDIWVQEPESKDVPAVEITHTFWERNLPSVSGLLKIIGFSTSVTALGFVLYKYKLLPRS", "settings": "cited from earlier work"}, "[5]": {"biological_target": "LSD-1 (Homo sapiens, UniProt O60341)", "settings": "cited from earlier work"}, "[6]": {"tested_on": "PC-9 non-small cell lung cancer cell line", "experiment": "MTT viability assay, PC-9", "format": "cell-based", "settings": "72 h, read-out: IC50, MTT assay, PC-9", "protocol": "as §1\nCell Lines: PC-9 cell line used was obtained from Sigma Aldrich and grown in RPMI 1640 medium with 10% fetal bovine serum and 1% penicillin/streptomycin. HCC4006, U266, MM1.s, and Beas-2B cell lines were obtained from ATCC and cultured in either RPMI 1640 or DMEM with 10% fetal bovine serum and 1% penicillin/streptomycin. All cell lines were also checked for mycoplasma every six months and subjected to short tandem repeat (STR) analysis for cell line validation. CRISPR Cas9: CRISPR Guide RNA 2 targeting ERO1α and CRISPR Guide RNA 4 were purchased from Genscript in the pLentiCRISPR V2 plasmid containing puromycin/ampicillin selection marker. Lentivirus was made from HEK 293T cells by co-transfection with GuideRNA of interest, pVSVG, and pPAX2 plasmids. Lentivirus was collected after 48 hours and concentrated using 40% PEG8000. […] Plate was then read on the BioTek Cytation 5 at 530/590 nm. […] Plate was then read at 570 nm. Treated wells were all compared to DMSO control wells to calculate percent growth inhibition and the IC50 was calculated using GraphPad (log(inhibitor) vs growth inhibition). […] Images were then quantified using ImageJ. […] Cells were aliquoted at 1 million cells per PCR tube in PBS and heated in Bio-Rad T100 thermal cycler at indicated temperatures (RT, 46° C., 48° C., 50° C., 52° C., 54° C., 56°, 58° C., and 60° C.) for 3 minutes and aggregation temperature was determined by western blot analysis. […]"}},
  "data": [
    {"compound": "N[C@@H]1C[C@H]1c1ccccc1", "note": "(racemic) [tranylcypromine, reference compound]", "values": [
      {"measurement": "inhibition of ERO1α activity (concentration response, FIG. 8)", "setting": "[1]; covalent modifiers of FAD", "result": "did not inhibit"}
    ]},
    {"compound": "O=C(O)c1cc(N2N=C(C(F)(F)F)/C(=C/c3ccc(-c4ccccc4)o3)C2=O)ccc1Cl", "note": "[EN-460, reference compound]", "values": [
      {"measurement": "inhibition of / activity against MAO-B", "setting": "[2]", "result": "inhibits"},
      {"measurement": "IC50", "setting": "[1]; purified human ERO1α 0.0625 mg/mL, PDI 0.0625 mg/mL, mean ± S.D., N=3", "result": "16.5 ± 3.47", "unit": "µM"},
      {"measurement": "activity in clonogenicity assay (colony number)", "setting": "[3]", "result": "devoid of activity"},
      {"measurement": "inhibition of / activity against MAO-A", "setting": "[4]", "result": "inhibits"},
      {"measurement": "inhibition of LSD-1", "setting": "[5]", "result": "inhibits"}
    ]},
    {"compound": "O=C(O)c1ccc(/C=C2\\Oc3cc(O)ccc3C2=O)cc1", "note": "[SR-F-114]", "values": [
      {"measurement": "IC50", "setting": "[6]", "result": "32.4 ± 6.01", "unit": "µM"}
    ]},
    {"compound": "O=C1/C(=C/c2c(F)cccc2Cl)Oc2cc(O)ccc21", "note": "[SR-F-125]", "values": [
      {"measurement": "inhibition at 10 µM", "setting": "[1]", "result": "20.7 ± 4.92", "unit": "%"}
    ]},
    {"compound": "O=C1/C(=C/c2ccc(-c3ccccc3)cc2)Oc2cc(O)ccc21", "note": "[SR-F-126]", "values": [
      {"measurement": "inhibition at 10 µM", "setting": "[1]", "result": "38.7 ± 1.56", "unit": "%"}
    ]}
  ]
}
